How the values were obtained:
[1] = tested on: subjects with medullary thyroid cancer (MTC); experiment: Placebo-controlled study of cabozantinib effect on QTc interval; format: in vivo, human
From the text: A concentration-QTc relationship could not be definitively established. Changes in cardiac wave form morphology or new rhythms were not observed.

[2] = tested on: cytochrome P450 enzymes; experiment: In vitro induction of cytochrome P450 enzymes; format: in vitro ADME
[3] = target: T1, CYP3A4 (Homo sapiens, UniProt P08684); experiment: In vitro CYP substrate studies; format: in vitro ADME
Target sequence in this assay (P08684 whole entry, species assumed): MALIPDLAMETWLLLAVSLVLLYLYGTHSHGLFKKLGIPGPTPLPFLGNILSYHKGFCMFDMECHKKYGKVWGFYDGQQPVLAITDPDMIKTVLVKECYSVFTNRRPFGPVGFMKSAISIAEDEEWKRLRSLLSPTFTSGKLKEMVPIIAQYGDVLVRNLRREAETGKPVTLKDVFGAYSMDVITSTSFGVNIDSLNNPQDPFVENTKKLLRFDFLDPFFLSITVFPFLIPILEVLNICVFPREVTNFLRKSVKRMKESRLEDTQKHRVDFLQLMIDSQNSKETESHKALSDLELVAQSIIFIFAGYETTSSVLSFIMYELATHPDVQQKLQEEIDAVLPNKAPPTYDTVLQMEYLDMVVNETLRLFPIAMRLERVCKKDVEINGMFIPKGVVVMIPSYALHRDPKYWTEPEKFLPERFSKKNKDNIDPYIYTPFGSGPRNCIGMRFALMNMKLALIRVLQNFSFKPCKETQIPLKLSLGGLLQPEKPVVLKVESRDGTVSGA

[4] = target: CYP2C9 (Homo sapiens, UniProt P11712); experiment: In vitro CYP substrate studies; format: in vitro ADME
Sequence of CYP2C9 (P11712 whole entry, species assumed): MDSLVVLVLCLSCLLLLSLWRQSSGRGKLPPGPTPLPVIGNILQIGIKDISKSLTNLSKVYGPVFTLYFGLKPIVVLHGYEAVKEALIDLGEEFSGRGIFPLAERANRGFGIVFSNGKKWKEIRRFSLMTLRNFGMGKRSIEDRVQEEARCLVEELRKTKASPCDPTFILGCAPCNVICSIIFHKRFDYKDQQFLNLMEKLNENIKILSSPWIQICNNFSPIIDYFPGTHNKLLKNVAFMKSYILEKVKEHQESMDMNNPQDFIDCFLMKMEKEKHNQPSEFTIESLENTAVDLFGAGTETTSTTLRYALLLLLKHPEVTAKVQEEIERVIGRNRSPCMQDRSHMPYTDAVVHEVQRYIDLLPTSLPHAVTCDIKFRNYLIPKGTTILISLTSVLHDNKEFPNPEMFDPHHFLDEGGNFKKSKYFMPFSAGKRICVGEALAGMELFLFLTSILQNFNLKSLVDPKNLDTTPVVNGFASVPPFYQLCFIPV

[5] = tested on: human plasma proteins; experiment: Plasma protein binding; format: in vitro ADME
[6] = Food effect on cabozantinib exposure; settings: in vivo
[7] = target: P-glycoprotein (Homo sapiens, UniProt P08183); experiment: In vitro P-glycoprotein substrate and inhibition data; format: in vitro ADME
Sequence of P-glycoprotein (P08183 whole entry): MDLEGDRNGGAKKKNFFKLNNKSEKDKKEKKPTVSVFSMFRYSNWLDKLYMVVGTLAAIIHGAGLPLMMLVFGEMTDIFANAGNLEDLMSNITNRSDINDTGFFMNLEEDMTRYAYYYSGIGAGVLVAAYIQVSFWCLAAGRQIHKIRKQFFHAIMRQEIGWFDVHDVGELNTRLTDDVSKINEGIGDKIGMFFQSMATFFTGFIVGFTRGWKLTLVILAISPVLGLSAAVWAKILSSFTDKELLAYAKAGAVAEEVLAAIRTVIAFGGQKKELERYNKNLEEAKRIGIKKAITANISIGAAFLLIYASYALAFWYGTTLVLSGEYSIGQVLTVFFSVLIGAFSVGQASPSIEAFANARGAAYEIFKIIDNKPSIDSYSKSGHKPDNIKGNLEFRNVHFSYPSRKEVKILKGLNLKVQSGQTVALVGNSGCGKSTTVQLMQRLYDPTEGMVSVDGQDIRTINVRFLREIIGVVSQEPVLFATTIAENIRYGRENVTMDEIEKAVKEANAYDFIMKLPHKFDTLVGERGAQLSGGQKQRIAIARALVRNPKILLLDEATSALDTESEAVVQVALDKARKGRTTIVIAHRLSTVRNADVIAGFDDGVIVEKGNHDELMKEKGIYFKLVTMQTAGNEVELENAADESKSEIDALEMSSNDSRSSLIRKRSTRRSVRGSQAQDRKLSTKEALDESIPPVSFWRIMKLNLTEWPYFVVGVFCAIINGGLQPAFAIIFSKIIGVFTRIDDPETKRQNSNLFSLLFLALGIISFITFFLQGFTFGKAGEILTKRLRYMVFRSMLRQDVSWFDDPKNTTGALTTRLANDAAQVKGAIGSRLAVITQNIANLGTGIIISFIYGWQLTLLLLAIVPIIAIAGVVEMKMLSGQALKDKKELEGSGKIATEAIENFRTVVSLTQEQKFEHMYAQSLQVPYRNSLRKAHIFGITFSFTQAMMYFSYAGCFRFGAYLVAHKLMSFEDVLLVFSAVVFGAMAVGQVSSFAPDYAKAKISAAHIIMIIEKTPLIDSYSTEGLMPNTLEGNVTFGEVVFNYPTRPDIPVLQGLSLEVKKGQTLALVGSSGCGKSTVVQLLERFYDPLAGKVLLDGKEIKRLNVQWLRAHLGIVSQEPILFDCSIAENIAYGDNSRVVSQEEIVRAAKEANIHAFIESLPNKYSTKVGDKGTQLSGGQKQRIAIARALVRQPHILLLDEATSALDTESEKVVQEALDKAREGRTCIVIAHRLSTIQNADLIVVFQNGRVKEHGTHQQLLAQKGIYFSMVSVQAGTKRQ

[8] = Effect of proton pump inhibitor esomeprazole on cabozantinib plasma PK; format: in vivo, human; settings: healthy volunteers
[9] = Time to steady state exposure of cabozantinib; format: in vivo, human; settings: following first dose
From the text: Events that generally have an early onset include hypocalcemia, hypokalemia, thrombocytopenia, hypertension, PPE, abdominal pain, mucosal inflammation, constipation, diarrhea, and vomiting. Adverse events should be managed with supportive car at the earliest signs of toxicity. Dose reductions and treatment interruptions should be considered. Dose reductions are recommended for events that, if persistent, could become serious or intolerable (Table 6-3).

[10] = Nonclinical GLP-compliant toxicology studies; format: in vivo
From the text: The development of any new or progressive, unexplained neurological symptoms should be assessed for underlying causes.

[11] = tested on: CYP1A1; experiment: In vitro induction of cytochrome P450 enzymes; format: in vitro ADME; settings: high cabozantinib concentrations (30 μM)
[12] = tested on: CYP2D6, CYP2C8, CYP2C19, CYP2B6, or CYP1A2; settings: human
[13] = tested on: advanced RCC after prior VEGFR-TKI; settings: cited from earlier work
[14] = tested on: relapsed or refractory metastatic UC; settings: cited from earlier work
[15] = tested on: advanced CRPC with bone metastases; settings: cited from earlier work
[16] = tested on: NSCLC without EGFR genetic alterations; settings: cited from earlier work
[17] = tested on: advanced NSCLC; settings: cited from earlier work
[18] = tested on: advanced RET-rearranged NSCLC; settings: cited from earlier work
[19] = tested on: murine colon carcinoma cell line (MC38-CEA); settings: in vitro; cited from earlier work
[20] = tested on: MC38-CEA tumor; settings: mouse, in vivo; cited from earlier work
[21] = tested on: metastatic triple-negative breast cancer; settings: in vivo; cited from earlier work
[22] = tested on: invasive prostate cancer; settings: through a neutrophil mediated anticancer innate immune response; cited from earlier work
[23] = tested on: previously-untreated advanced RCC of intermediate- or poor-risk; settings: cited from earlier work
[24] = target: T1, CYP3A4; experiment: Clinical pharmacology study XL184-006 with the strong CYP3A4 inducer rifampin; format: in vivo; set-up: endogenous in cells; host or cells: healthy volunteers, in vivo; settings: concurrent rifampin; single dose of cabozantinib in healthy volunteers
Target sequence in this assay (P08684 whole entry): as the sequence (P08684 whole entry, species assumed) above

[25] = target: T1, CYP3A4; experiment: Clinical pharmacology study XL184-007 with the strong CYP3A4 inhibitor ketoconazole; format: in vivo; set-up: endogenous in cells; host or cells: healthy volunteers, in vivo; settings: concurrent ketoconazole; single dose of cabozantinib in healthy volunteers
Target sequence in this assay (P08684 whole entry): as the sequence (P08684 whole entry, species assumed) above

[26] = Cohort 1, 42 evaluable subjects

Structure (SMILES): COc1cc2nccc(Oc3ccc(NC(=O)C4(C(=O)Nc5ccc(F)cc5)CC4)cc3)c2cc1OC [cabozantinib, N-(4-{[6,7-bis(methyloxy)quinolin-4-yl]oxy}phenyl)-N′-(4-fluorophenyl)cyclopropane-1,1-dicarboxamide]
- Subjects with a QTcF >500 ms ([1]; cabozantinib 140 mg qd): No cabozantinib-treated subjects
- Mean increase in QTcF ([1]; cabozantinib 140 mg qd orally, 4 weeks after initiating treatment): 10 to 15 ms
- Events of torsades de pointes ([1]; larger safety database (approximately 5000 subjects exposed)): no events of torsades de pointes
- Induction of cytochrome P450 enzymes [2]: unlikely to Induce
- CYP3A4 substrate status [3]: CYP3A4 substrate
- CYP2C9 substrate status [4]: weak substrate
- Bound to human plasma proteins [5]: 99.7%
- Increase of exposure levels by food [6]: 57%
- Inhibition of P-glycoprotein transport activity [7]: potential to inhibit
- P-glycoprotein substrate status [7]: unlikely to be a substrate
- Effect of esomeprazole on cabozantinib plasma PK [8]: no clinically-relevant effect
- Time to steady state exposure [9]: approximately 2 weeks
- Risk of adverse neurological effects [10]: minimal risk of adverse neurological effects
- Induction of CYP1A1 [11]: possible induction
- CYP2D6, CYP2C8, CYP2C19, CYP2B6, CYP1A2 substrate status [12]: not a CYP2D6, CYP2C8, CYP2C19, CYP2B6, or CYP1A2 substrate
- Dose reductions from 60 mg to 40 mg ([13]; % of subjects): 60%
- Further dose reductions from 40 mg to 20 mg ([13]; % of subjects): 20%
- Treatment discontinuations due to AEs ([13]; incidence in each arm): 10%
- Number of PRs [14, 26]: 7
- Number of complete responses (CR) [14, 26]: 1
- ORR [14, 26]: 19.1%
- Median OS ([14]; Cohort 1): 8.0 months
- Median PFS ([14]; Cohort 1): 3.7 months
- Cabozantinib-related Grade 4 AE: hypomagnesemia ([14]; all cohorts (n=67)): 3%
- Cabozantinib-related Grade 4 AE: lipase increased ([14]; all cohorts (n=67)): 1%
- Grade 3 AE related to cabozantinib: hypertension ([14]; all cohorts (n=67)): 7%
- Grade 3 AE related to cabozantinib: hypophosphatemia ([14]; all cohorts (n=67)): 6%
- Grade 3 AE related to cabozantinib: fatigue ([14]; all cohorts (n=67), most frequent (5% incidence)): 9%
- Immunosuppressive Treg lymphocytes following treatment ([14]; in vivo): reductions
- Proportion of subjects with a bone scan response (BSR) per IRC ([15]; at Week 12): 42%
- Median PFS per investigator ([15]; exploratory endpoint): 5.6 months
- Median duration of BSR ([15]; in vivo): 5.8 months
- Median duration of OS (Kaplan-Meier) ([15]; in vivo): 11.0 months
- Estimated median OS ([16]; in vivo): 9.2 months
- ORR ([16]; in vivo): 11%
- PFS ([16]; second or third line treatment): 4.3 months
- Grade 3 or 4 AE: diarrhea ([16]; single-agent cabozantinib): 8%
- Grade 3 or 4 AE: fatigue ([16]; single-agent cabozantinib): 15%
- Grade 3 or 4 AE: hypertension ([16]; single-agent cabozantinib): 25%
- Grade 3 or 4 AE: oral mucositis ([16]; single-agent cabozantinib): 10%
- Grade 3 or 4 AE: thromboembolic event ([16]; single-agent cabozantinib): 8%
- ORR ([17]; 60 subjects, single agent): 10%
- Stable disease as best response ([17]; % of subjects): 48.3%
- Objective response rate (ORR) ([17]; heavily pre-pretreated unselected NSCLC, early phase clinical trials): approximately 10%
- Median PFS ([17]; in vivo): 4.0 months
- Overall response rate (ORR) ([18]; RET-rearranged NSCLC): 28%
- Grade 3 treatment-related AE: decreased platelet count ([18]; in vivo): 8%
- Grade 3 treatment-related AE: hypophosphataemia ([18]; in vivo): 8%
- Grade 3 treatment-related AE: increased ALT ([18]; in vivo): 8%
- Grade 3 treatment-related AE: increased AST ([18]; in vivo): 8%
- Grade 3 treatment-related AE: lipase elevation ([18]; in vivo): 15%
- Median OS ([18]; in vivo): 9.9 months
- Median PFS ([18]; in vivo): 5.5 months
- Treatment-related deaths ([18]; in vivo): No treatment-related deaths
- Sensitivity of tumor cells to T-cell-mediated killing [19]: greater sensitivity
- Tumor-cell expression of major histocompatibility complex (MHC) class 1 antigen [19]: increased tumor-cell expression
- Peripheral CD8+ T-cell counts [20]: increased
- Regulatory T-cells (Tregs) and myeloid-derived suppressor cells (MDSCs) [20]: decreased
- Treg suppressor activity [20]: decreased
- CD14+ monocytes [21]: persistent decrease
- Fraction of circulating CD3+ T lymphocytes [21]: persistent increase
- Effect on invasive prostate cancer [22]: rapid elimination of invasive prostate cancer
- Discontinued study treatment due to an AE ([23]; 16 subjects in each arm): 20%
- Adverse events of ≥Grade 3 regardless of causality ([23]; % of subjects): 68%
- Reduction of the rate of disease progression or death ([23]; compared with sunitinib): 34%
- Median OS ([23]; in vivo): 26.6 months
- Median PFS per IRC ([23]; in vivo): 8.6 months
- Median PFS per investigator ([23]; in vivo): 8.2 months
- ≥Grade 3 AE: PPE ([23]; in vivo): 8%
- ≥Grade 3 AE: diarrhea ([23]; in vivo): 10%
- ≥Grade 3 AE: fatigue ([23]; in vivo): 6%
- ≥Grade 3 AE: hematological events ([23]; in vivo): 2%
- ≥Grade 3 AE: hypertension ([23]; in vivo): 28%
- Reduction in cabozantinib exposure (AUC values) [24]: approximately 77%
- Increase in cabozantinib exposure (AUC values) [25]: 38%

Source: US11198731B2 (Exelixis, Inc., priority 2017, dated 2021)
